Values quoted from earlier work in patent US20040019115A1, “Use of milnacipran for the treatment of tension-type headache” (priority 2002, published 2004).

Conditions: patients with chronic tension-type headache, prophylactic treatment

CN(C)CCC=C1c2ccccc2CCc2ccccc21 [Amitriptyline]
reduction of headache: 30%
